In ChEMBL document CHEMBL1806412, “Discovery of novel fatty acid synthase (FAS) inhibitors based on the structure of ketoaceyl synthase (KS) domain” (Bioorg Med Chem Lett, 2011):
Calls of active or inactive are those of the source. No cut-off for these calls is given here.

Assays:
SW480 = assay: Growth inhibition of human SW480 cells overexpressing FAS gene after 72 hrs by MTT assay; format: functional, cell-based; conditions: SW480, 72 h
NCI-H1975 = assay: Growth inhibition of human NCI-H1975 cells at 0.041 to 10 ug/ml after 72 hrs by MTT assay; format: functional, cell-based
MDA-MB-468 = assay: Growth inhibition of human MDA-MB-468 cells overexpressing FAS gene after 72 hrs by MTT assay; format: functional, cell-based; conditions: MDA-MB-468, 72 h
Fatty acid synthase = Fatty acid synthase (Gallus gallus, UniProt P12276); assay: Inhibition of chicken FAS by spectrophotometric analysis
Fatty acid synthase, sequence (P12276 whole entry): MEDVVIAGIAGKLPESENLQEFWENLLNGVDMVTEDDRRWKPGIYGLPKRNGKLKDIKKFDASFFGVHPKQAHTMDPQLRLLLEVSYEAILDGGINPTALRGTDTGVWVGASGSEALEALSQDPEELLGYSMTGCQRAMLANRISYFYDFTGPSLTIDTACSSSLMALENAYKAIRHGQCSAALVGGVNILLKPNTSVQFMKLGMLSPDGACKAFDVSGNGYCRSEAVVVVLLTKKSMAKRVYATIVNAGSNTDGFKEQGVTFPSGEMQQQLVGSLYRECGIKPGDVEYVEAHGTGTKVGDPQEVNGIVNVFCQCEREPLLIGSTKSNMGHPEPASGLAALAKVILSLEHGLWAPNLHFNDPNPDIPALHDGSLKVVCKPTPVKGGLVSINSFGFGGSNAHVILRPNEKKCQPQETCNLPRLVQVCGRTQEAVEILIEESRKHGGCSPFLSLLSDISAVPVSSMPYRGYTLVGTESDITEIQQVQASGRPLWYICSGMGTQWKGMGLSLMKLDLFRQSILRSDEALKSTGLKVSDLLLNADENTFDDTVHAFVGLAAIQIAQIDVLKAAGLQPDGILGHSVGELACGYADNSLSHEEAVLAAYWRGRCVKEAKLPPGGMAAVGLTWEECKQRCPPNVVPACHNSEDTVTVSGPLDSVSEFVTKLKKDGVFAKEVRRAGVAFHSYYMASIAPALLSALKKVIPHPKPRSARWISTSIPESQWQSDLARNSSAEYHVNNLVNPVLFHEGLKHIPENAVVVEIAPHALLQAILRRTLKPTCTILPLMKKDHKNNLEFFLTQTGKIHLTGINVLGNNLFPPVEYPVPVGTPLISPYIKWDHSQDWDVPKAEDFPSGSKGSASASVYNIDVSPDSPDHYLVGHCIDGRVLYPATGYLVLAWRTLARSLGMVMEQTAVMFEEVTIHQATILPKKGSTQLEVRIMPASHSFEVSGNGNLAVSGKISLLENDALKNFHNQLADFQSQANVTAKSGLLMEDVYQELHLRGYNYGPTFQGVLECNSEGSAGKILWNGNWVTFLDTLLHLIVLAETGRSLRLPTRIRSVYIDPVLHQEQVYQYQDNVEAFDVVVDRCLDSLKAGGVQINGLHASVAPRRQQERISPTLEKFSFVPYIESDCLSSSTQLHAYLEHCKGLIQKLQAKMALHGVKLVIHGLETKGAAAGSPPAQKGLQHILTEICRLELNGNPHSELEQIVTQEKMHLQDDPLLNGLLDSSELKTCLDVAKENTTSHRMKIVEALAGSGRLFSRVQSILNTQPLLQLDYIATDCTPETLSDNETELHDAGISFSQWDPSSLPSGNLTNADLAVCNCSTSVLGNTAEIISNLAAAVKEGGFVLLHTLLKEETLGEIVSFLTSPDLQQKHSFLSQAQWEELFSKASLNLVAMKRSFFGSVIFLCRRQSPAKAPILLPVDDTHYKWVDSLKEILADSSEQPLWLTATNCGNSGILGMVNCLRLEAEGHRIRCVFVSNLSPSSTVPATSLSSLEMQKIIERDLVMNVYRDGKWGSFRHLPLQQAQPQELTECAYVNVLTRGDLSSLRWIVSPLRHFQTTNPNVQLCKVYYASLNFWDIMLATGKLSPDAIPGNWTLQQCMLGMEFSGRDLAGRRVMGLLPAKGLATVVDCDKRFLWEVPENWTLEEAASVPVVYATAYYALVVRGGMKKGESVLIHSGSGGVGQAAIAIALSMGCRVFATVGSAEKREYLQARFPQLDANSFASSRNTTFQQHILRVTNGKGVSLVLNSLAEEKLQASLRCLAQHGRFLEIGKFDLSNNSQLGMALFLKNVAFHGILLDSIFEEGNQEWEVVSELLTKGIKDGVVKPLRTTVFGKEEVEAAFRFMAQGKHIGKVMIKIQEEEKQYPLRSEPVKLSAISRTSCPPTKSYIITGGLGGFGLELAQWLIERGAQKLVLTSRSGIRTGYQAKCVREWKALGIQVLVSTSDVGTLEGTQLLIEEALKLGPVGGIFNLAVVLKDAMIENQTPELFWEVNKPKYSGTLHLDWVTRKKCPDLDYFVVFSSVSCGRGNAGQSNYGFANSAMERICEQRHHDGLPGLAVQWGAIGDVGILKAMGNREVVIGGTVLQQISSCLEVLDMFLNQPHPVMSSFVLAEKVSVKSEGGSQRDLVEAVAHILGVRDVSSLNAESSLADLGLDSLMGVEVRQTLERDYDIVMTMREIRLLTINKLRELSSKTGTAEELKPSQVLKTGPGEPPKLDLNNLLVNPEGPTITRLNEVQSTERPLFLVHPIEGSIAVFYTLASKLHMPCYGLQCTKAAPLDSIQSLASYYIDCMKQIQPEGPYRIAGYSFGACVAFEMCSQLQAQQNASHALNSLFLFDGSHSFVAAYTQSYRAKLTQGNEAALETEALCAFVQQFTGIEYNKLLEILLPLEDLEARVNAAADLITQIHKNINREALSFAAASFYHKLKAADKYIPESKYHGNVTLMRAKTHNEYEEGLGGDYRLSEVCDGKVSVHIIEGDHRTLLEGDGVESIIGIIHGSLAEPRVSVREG

Row | Structure (SMILES) | IC50 (SW480) [µM] | IC50 (MDA-MB-468) [µM] | IC50 (Fatty acid synthase) [µM] | inhibition (NCI-H1975)
1 | CCn1c(SCC(=O)Nc2cc(Cl)ccc2Cl)nnc1C(C)(C)NC(=O)c1cccc(C)c1 | 14.7 | – | – | inactive
2 | CC1=C(C(=O)Nc2ccccn2)C(c2ccc(Br)cc2)NC(S)=N1 (configuration not stated) | – | 8.4 | – | inactive
3 | CC1=C(C(=O)Nc2ccccc2)[C@@H](c2ccc(OCc3ccccc3)cc2)n2ncnc2N1 | 19.9 | – | – | inactive

The remaining compounds from weak to strong by IC50 (SW480), led by results:

Row | IC50 (SW480) [µM] | IC50 (MDA-MB-468) [µM] | IC50 (Fatty acid synthase) [µM] | Structure (SMILES) | inhibition (NCI-H1975)
4 | 14.2 | – | – | CC1=C(C(=O)Nc2ccc(Cl)cc2)C(c2cc(Br)ccc2O)NC(=S)N1 (configuration not stated) | inactive
5 | 11.1 | 19.3 | – | CC1=NC2N=NNN2[C@@H](c2ccc(OCc3ccccc3)cc2)C1C(=O)Nc1ccccc1 (some centres not stated) | inactive
6 | 7.5 | – | – | COc1cc(OC)c([C@H]2NC(=S)NC(C)=C2C(=O)Nc2ccccc2Cl)cc1OC | inactive
7 | 1.5 | 8.3 | 12.7 | O=[N+]([O-])c1cccc(-c2csc(N/N=C\c3ccccn3)n2)c1 | inactive
